Here are results for 42 compounds from patent US10927096B2, “Ester substituted ion channel blockers and methods for use” (Nocion Therapeutics, Inc., priority 2019, dated 2021).

The assay has as its target T1, NaV1.7 (Homo sapiens, UniProt Q15858).
T1 construct: expressed in transfected cells; host or cells: HEK293, tetracycline-inducible
In words: Whole cell patch clamp, internal block of NaV1.7 current. Type of assay: cell-based. Conditions: % inhibition at 1 μM test concentration, compound in internal solution, manual whole cell patch clamp. The method, then:
NaV1.7 was expressed upon induction with tetracycline. Cells were cultured in DMEM containing 10% dialyzed Fetal Bovine Serum (VWR, Radnor, Pa.), 1% Glutamax (VWR, Radnor, Pa.), 1% Penicillin-Streptomycin (VWR, Radnor, Pa.), 100 mg/L Hygromycin (Thermo Fisher Scientific, Waltham, Mass. and 5 mg/L Blasticidin (Alfa Aesar, Haverhill, Mass.). Cells were grown and maintained at 37° C. in a humidified environment containing 10% C02 in air. Cells were detached from the culture flask for passage and harvested using 0.05% Trypsin-EDTA (Thermo Fisher Scientific, Waltham, Mass.). To induce NaV1.7, cells were induced with tetracycline (0.1-1 μg/mL, IBI Scientific, Peosta, Iowa) the day before recording and plated onto 24-well plates. Cells were washed with DPBS (VWR, Radnor, Pa.), trypsinized and then triturated five times in 10 mL of growth media to break apart cell aggregates. For one 24-well plate, 2 mL of cell suspension was mixed with 23 mL of fresh growth media and 0.1-1 μg/mL tetracycline added. 1 ml of mixed media with cells was then added to each well of a 24-well plate, with a 12 mm coverslip already placed in the bottom of the well. Cells were then incubated in 37° C. and 10% CO2 overnight.
The intracellular solution contained the following (in mM) CsCl 135, NaCl 10, EGTA 10, HEPES 10, MgCl2 2, adjusted to pH 7.2 with CsOH. The external solution was a normal Ringer solution containing (in mM) NaCl 155, HEPES 10, glucose 10, KCl 3.5, CaCl2 1.5, MgCl2 1 adjusted to pH 7.4 with NaOH. CsCl is from Alfa Aesar, Haverhill, Mass. All other chemicals are from Sigma-Aldrich, St. Louis, Mo. In order to test the degree of internal block by test compounds the compounds were dissolved in internal solution at the indicated test concentration. […] In order to test the degree of external block by test compounds the compounds were dissolved in external solution at the indicated test concentration.
18-24 hours after cells were induced with tetracycline, coverslips were placed into a chamber filled with Normal Ringer solution at room temperature and the chamber placed on a microscope. Pipettes were pulled from borosilicate glass on a P97 puller (Sutter Instrument, Novato, Calif.) and polished with a MF-830 Microforge (Narishige International USA, Inc, Amityville, N.Y.) to have a resistance of 1.5-2.5 MΩ when filled with CsCl internal solution at room temperature. Healthy cells (those that are round and translucent with no visible blemishes) were chosen for seal formation. A seal was formed between the pipette and the cell, and a brief pulse of suction was used to “break in” and establish the whole-cell configuration. The membrane potential was held at −100 mV before the voltage protocol began. Only cells with series resistance between 1.5-5 MΩ were retained for analysis. The voltage protocol was as follows: Cells were held at −100 mV for 12 ms followed by a hyperpolarizing step to −105 mV for 12 ms to monitor the leak. Cells were then stepped back to −100 mV for 40 ms. Cells were then depolarized to −20 mV for 10 ms and then returned to −100 mV for 26 ms (The FIGURE).
Once the recording was started, the voltage protocol was run at 30 second intervals for 5 minutes to get a stable baseline. This was followed by four 30-second periods of 5 Hz stimulation of the same voltage protocol separated by 1 minute of rest which was then followed by 0.33 Hz stimulation after the last train. Currents were recorded using PatchMaster software with Heka EPC10 (HEKA Electronics, Lambrecht, Germany). Only cells with inward current amplitudes at −20 mV between 400 pA and 4 nA were accepted. In addition, cells having leak currents greater than 10% of their current amplitudes were discarded.
The data was plotted using the Patchmaster software (HEKA Electronics, Lambrecht, Germany) and analyzed by plotting the minimum current during the voltage step to −20 mV (peak inward current) as a function of time. […]

T1 sequence (Q15858 whole entry): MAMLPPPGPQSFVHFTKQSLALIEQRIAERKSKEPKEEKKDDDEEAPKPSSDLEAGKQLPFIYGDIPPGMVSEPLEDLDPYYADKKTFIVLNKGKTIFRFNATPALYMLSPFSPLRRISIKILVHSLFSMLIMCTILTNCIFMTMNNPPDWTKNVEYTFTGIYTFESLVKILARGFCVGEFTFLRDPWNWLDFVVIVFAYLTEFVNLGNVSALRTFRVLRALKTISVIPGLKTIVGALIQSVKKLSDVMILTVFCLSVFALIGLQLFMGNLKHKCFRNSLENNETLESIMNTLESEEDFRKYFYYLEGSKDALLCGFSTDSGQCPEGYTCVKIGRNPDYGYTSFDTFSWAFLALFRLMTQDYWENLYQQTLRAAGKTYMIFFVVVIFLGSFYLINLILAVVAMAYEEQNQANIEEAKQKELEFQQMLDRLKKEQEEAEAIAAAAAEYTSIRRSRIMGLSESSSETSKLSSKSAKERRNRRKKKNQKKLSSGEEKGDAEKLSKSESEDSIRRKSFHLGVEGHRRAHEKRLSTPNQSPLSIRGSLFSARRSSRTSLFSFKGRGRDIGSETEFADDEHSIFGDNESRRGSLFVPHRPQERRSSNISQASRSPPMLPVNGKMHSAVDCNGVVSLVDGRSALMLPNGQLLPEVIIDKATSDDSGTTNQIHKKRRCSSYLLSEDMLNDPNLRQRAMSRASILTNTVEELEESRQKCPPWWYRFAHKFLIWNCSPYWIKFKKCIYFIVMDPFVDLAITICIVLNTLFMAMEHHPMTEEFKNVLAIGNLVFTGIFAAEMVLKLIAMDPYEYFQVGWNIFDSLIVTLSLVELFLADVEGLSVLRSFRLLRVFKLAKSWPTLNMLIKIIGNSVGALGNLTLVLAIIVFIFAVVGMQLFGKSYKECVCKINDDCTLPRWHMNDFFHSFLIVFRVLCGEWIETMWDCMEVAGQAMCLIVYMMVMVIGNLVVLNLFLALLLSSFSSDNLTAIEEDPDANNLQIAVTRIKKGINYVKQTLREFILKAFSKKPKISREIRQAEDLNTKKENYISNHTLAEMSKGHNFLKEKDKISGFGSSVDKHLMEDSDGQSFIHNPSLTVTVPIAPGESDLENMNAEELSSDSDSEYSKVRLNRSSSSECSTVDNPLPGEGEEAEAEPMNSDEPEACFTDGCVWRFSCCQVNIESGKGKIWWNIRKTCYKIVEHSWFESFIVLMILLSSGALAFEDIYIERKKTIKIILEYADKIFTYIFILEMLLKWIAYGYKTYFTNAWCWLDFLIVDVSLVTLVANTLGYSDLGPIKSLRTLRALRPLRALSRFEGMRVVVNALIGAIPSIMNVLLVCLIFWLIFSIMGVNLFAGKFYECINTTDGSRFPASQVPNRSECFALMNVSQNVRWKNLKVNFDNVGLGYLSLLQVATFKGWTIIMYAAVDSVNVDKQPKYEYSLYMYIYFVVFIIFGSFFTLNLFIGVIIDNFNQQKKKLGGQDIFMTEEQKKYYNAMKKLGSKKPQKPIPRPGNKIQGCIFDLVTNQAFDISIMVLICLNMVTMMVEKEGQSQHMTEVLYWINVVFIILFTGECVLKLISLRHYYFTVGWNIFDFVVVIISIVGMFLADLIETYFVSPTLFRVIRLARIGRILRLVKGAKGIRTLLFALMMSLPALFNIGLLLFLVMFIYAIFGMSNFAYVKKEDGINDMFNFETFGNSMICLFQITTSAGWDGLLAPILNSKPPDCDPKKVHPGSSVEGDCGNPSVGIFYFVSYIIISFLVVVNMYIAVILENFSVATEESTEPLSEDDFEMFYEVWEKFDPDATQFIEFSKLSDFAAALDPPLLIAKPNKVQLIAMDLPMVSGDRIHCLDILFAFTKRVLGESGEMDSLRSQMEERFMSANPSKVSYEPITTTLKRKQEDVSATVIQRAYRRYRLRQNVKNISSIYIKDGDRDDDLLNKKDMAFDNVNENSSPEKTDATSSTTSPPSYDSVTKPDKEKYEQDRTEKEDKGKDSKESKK

In the case of `Cc1cccc(C(=O)OC(C)(C)C)c1NC(=O)C[n+]1cccn1C1CCCCC1.[Br-]` [Compound 72], the “NaV1.7 Intracellular Inhibition” value is on record as “++ (70-30%)”.

For `CC[N+]1(CC(=O)Nc2c(C)cccc2C(=O)OC)CCCC(C(=O)NC)C1.[I-]` (stereo not drawn) [Compound 46], the “NaV1.7 Intracellular Inhibition” value was “+ (<30%)”.

As to `CCNC(=O)C1CCC[N+](CC(=O)Nc2c(C)cccc2C(=O)OC)(Cc2ccccc2)C1.O=C([O-])C(F)(F)F` (stereo not drawn) [Compound 33], the “NaV1.7 Intracellular Inhibition” value was “++ (70-30%)”.

Consider `COC(=O)C[N+]1(CC(=O)Nc2c(C)cccc2C(=O)OC)CCCC(c2ccccc2)C1` (mixture of isomers) [Compound 64], for which the “NaV1.7 Intracellular Inhibition” value is reported as “++ (70-30%)”.

For `CC[N+]1(CC(=O)Nc2c(C)cccc2C(=O)OC)CCCC(C(=O)OC2CCCCC2)C1` (mixture of isomers) [Compound 27], the “NaV1.7 Intracellular Inhibition” value was “++ (70-30%)”.

Consider `CCc1cccc(C[N+]2(C(CC)C(=O)Nc3c(C)cccc3C(=O)OC)CCCCC2)c1.O=C[O-]` (stereo not drawn) [Compound 58], for which the “NaV1.7 Intracellular Inhibition” value is on record as “+++ (90-70%)”.

As for `Cc1cccc(C(=O)OC(C)(C)C)c1NC(=O)C[n+]1cccc(-c2ccccc2)c1.[Br-]` [Compound 71], the “NaV1.7 Intracellular Inhibition” value is “++ (70-30%)”.

As for `CCN(CC)C(=O)C[N+]1(CC(=O)Nc2c(C)cccc2C(=O)OC)CCCC(c2ccccc2)C1` (mixture of isomers) [Compound 62], the “NaV1.7 Intracellular Inhibition” value is given as “++ (70-30%)”.

For the compound `CCOC(=O)c1cccc(C)c1NC(=O)C[N+]1(Cc2ccccc2)CCCCC1.[Br-]` [Compound 4], the “NaV1.7 Intracellular Inhibition” value is reported as “+++ (90-70%)”.

For `CCCOC(=O)C1CCC[N+](CC)(CC(=O)Nc2c(C)cccc2C(=O)OC)C1.[I-]` (stereo not drawn) [Compound 26], the “NaV1.7 Intracellular Inhibition” value is “++ (70-30%)”.

On to `CC[N+]1(CC(=O)Nc2c(C)cccc2C(=O)OC)CCCC(C(=O)OCC(C)C)C1.[I-]` (stereo not drawn) [Compound 23], for which the “NaV1.7 Intracellular Inhibition” value was “+++ (90-70%)”.

Turning to `CCC(C(=O)Nc1c(C)cccc1C(=O)OC)[N+]1(Cc2ccccc2)CCCCC1` (stereo not drawn) [Compound 57], under “read-out: NaV1.7 Intracellular Inhibition”, the inhibition at 1 µM lay within 30 to 70%.

As to `CC[N+]1(CC(=O)Nc2c(C)cccc2C(=O)OC)CCCC(C(=O)N2CCCCC2)C1.[I-]` (stereo not drawn) [Compound 45], the “NaV1.7 Intracellular Inhibition” value is listed as “++ (70-30%)”.

For `CC[N+]1(CC(=O)Nc2c(C)cccc2C(=O)OC)CCCC(C(N)=O)C1.[I-]` (stereo not drawn) [Compound 55], the “NaV1.7 Intracellular Inhibition” value is recorded as “+++ (90-70%)”.

With `CCOC(=O)c1cccc(C)c1NC(=O)C[N+]1(Cc2ccccc2)CCCC1.[Br-]` [Compound 9], the “NaV1.7 Intracellular Inhibition” value is listed as “+++ (90-70%)”.

With `COC(=O)c1cccc(C)c1NC(=O)C[N+]1(Cc2ccccc2)CCCCCC1` [Compound 1], the “NaV1.7 Intracellular Inhibition” value was “++++ (>90%)”.

`COC(=O)c1cccc(C)c1NC(=O)C[N+]1(Cc2ccccc2)CCCC(C(=O)NC(C)C)C1.[Br-]` (stereo not drawn) [Compound 32]: the “NaV1.7 Intracellular Inhibition” value was “++ (70-30%)”.

As to `COC(=O)c1cccc(C)c1NC(=O)C[N+]1(Cc2ccccc2)CCCC(C(=O)NC2CCCC2)C1.[Br-]` (stereo not drawn) [Compound 41], the “NaV1.7 Intracellular Inhibition” value was “+ (<30%)”.

Take `COC(=O)c1cccc(C)c1NC(=O)C[n+]1cccn1C1CCCCC1.[Br-]` [Compound 69]: the “NaV1.7 Intracellular Inhibition” value was “++ (70-30%)”.

Regarding `CCOC(=O)c1cccc(C)c1NC(=O)C[n+]1cccc(-c2ccccc2)c1` [Compound 67], the “NaV1.7 Intracellular Inhibition” value is listed as “+++ (90-70%)”.

Regarding `CCCCOC(=O)C1CCC[N+](CC)(CC(=O)Nc2c(C)cccc2C(=O)OC)C1.[I-]` (mixture of isomers) [Compound 15], the “NaV1.7 Intracellular Inhibition” value is given as “++ (70-30%)”.

Turning to `CC[N+]1(CC(=O)Nc2c(C)cccc2C(=O)OC)CCCC(c2ccccc2)C1` (mixture of isomers) [Compound 65], the “NaV1.7 Intracellular Inhibition” value is on record as “++++ (>90%)”.

Turning to `Cc1cccc(C(=O)OC(C)C)c1NC(=O)C[N+]1(Cc2ccccc2)CCCCCC1.[Br-]` [Compound 7], the “NaV1.7 Intracellular Inhibition” value is on record as “++++ (>90%)”.

Turning to `CCOC(=O)C1CCC[N+](CC(=O)Nc2c(C)cccc2C(=O)OC)(Cc2ccccc2)C1` (mixture of isomers) [Compound 16], the “NaV1.7 Intracellular Inhibition” value was “+++ (90-70%)”.

On to `COC(=O)c1cccc(C)c1NC(=O)C[N+]1(Cc2ccccc2)CCCC1` [Compound 5], for which the “NaV1.7 Intracellular Inhibition” value was “++ (70-30%)”.

Turning to `COC(=O)c1cccc(C)c1NC(=O)C[N+]1(Cc2ccccc2)CCCCC1.[Br-]` [Compound 3], the “NaV1.7 Intracellular Inhibition” value was “++ (70-30%)”.

As for `COC(=O)c1cccc(C)c1NC(=O)C[N+]1(Cc2ccccc2)CCCC(C(=O)N2CCCC2)C1` (mixture of isomers) [Compound 43], the “NaV1.7 Intracellular Inhibition” value is “++ (70-30%)”.

With `COC(=O)c1cccc(C)c1NC(=O)C[n+]1cccc(-c2ccccc2)c1.[Br-]` [Compound 66], the “NaV1.7 Intracellular Inhibition” value is “+++ (90-70%)”.

Turning to `CCOC(=O)c1cccc(C)c1NC(=O)C[N+]1(Cc2ccccc2)CCCCCC1` [Compound 2], the “NaV1.7 Intracellular Inhibition” value is given as “++++ (>90%)”.

`COC(=O)c1cccc(C)c1NC(=O)C[N+]1(CC(N)=O)CCCC(c2ccccc2)C1` (mixture of isomers) [Compound 61]: the “NaV1.7 Intracellular Inhibition” value is recorded as “+++ (90-70%)”.

With `COC(=O)c1cccc(C)c1NC(=O)C[N+]1(Cc2ccccc2)CCCC(C(=O)N2CCCCCC2)C1.[Br-]` (stereo not drawn) [Compound 34], the “NaV1.7 Intracellular Inhibition” value is recorded as “++ (70-30%)”.

On to `COC(=O)c1cccc(C)c1NC(=O)C[N+]1(Cc2ccccc2)CCCC(C(=O)NCC(C)C)C1.[Br-]` (stereo not drawn) [Compound 36], for which the “NaV1.7 Intracellular Inhibition” value was “++ (70-30%)”.

As to `COC(=O)c1cccc(C)c1NC(=O)C[N+]1(CC(=O)N(C)C)CCCC(c2ccccc2)C1.O=C([O-])C(F)(F)F` (stereo not drawn) [Compound 60], the “NaV1.7 Intracellular Inhibition” value is “++ (70-30%)”.

Regarding `CCCCOC(=O)C1CCC[N+](CC(=O)Nc2c(C)cccc2C(=O)OC)(Cc2ccccc2)C1.[Br-]` (mixture of isomers) [Compound 14], the “NaV1.7 Intracellular Inhibition” value is recorded as “++ (70-30%)”.

Turning to `COC(=O)c1cccc(C)c1NC(=O)C[N+]1(Cc2ccccc2)CCCC(C(N)=O)C1.[Br-]` (stereo not drawn) [Compound 30], the “NaV1.7 Intracellular Inhibition” value is “++ (70-30%)”.

Turning to `CNC(=O)C[N+]1(CC(=O)Nc2c(C)cccc2C(=O)OC)CCCC(c2ccccc2)C1.[Br-]` (mixture of isomers) [Compound 59], the “NaV1.7 Intracellular Inhibition” value was “+++ (90-70%)”.

Regarding `CC[N+]1(CC(=O)Nc2c(C)cccc2C(=O)OC)CCCC(C(=O)N2CCCC2)C1` (mixture of isomers) [Compound 54], the “NaV1.7 Intracellular Inhibition” value is “++ (70-30%)”.

With `COC(=O)c1cccc(C)c1NC(=O)C[N+]1(Cc2ccccc2)CCCC(C(=O)N(C)C)C1` (mixture of isomers) [Compound 40], the “NaV1.7 Intracellular Inhibition” value was “++ (70-30%)”.

As to `CCCOC(=O)c1cccc(C)c1NC(=O)C[N+]1(Cc2ccccc2)CCCCCC1.[Br-]` [Compound 6], the “NaV1.7 Intracellular Inhibition” value is recorded as “+++ (90-70%)”.

For the compound `CC[N+]1(CC(=O)Nc2c(C)cccc2C(=O)OC)CCCC(C(=O)NC2CCCCC2)C1.[I-]` (stereo not drawn) [Compound 56], the “NaV1.7 Intracellular Inhibition” value is on record as “++ (70-30%)”.

As to `CNC(=O)C1CCC[N+](CC(=O)Nc2c(C)cccc2C(=O)OC)(Cc2ccccc2)C1` (mixture of isomers) [Compound 31], the “NaV1.7 Intracellular Inhibition” value was “++ (70-30%)”.

As for `CCOC(=O)C[N+]1(CC(=O)Nc2c(C)cccc2C(=O)OC)CCCC(c2ccccc2)C1.O=C([O-])C(F)(F)F` (stereo not drawn) [Compound 63], the “NaV1.7 Intracellular Inhibition” value is given as “+++ (90-70%)”.
